Results from PubChem BioAssay (NCI).
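All cell lines were grown in 96-well plates and treated with compound for 48 hours. GI50 = concentration required for 50% inhibition of growth. TGI marks complete inhibition of growth.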

Key:
Test in all cases: NCI tumour cell line growth inhibition, 48 h
786-0 renal = system: 786-0 renal
A498 renal = system: A498 renal
A549 NSCLC = system: A549 NSCLC
ACHN renal = system: ACHN renal
BT-549 breast = system: BT-549 breast
CAKI-1 renal = system: CAKI-1 renal
CCRF-CEM leukemia = system: CCRF-CEM leukemia
COLO 205 colon = system: COLO 205 colon
DU-145 prostate = system: DU-145 prostate
EKVX NSCLC = system: EKVX NSCLC
HCC-2998 colon = system: HCC-2998 colon
HCT-116 colon = system: HCT-116 colon
HCT-15 colon = system: HCT-15 colon
HL-60(TB) leukemia = system: HL-60(TB) leukemia
HOP-62 NSCLC = system: HOP-62 NSCLC
HOP-92 NSCLC = system: HOP-92 NSCLC
HS 578T breast = system: HS 578T breast
HT29 colon = system: HT29 colon
IGROV1 ovarian = system: IGROV1 ovarian
K-562 leukemia = system: K-562 leukemia
KM12 colon = system: KM12 colon
LOX IMVI melanoma = system: LOX IMVI melanoma
M14 melanoma = system: M14 melanoma
MALME-3M melanoma = system: MALME-3M melanoma
MCF7 breast = system: MCF7 breast
MDA-MB-231 breast = system: MDA-MB-231 breast
MDA-MB-435 = system: MDA-MB-435
MOLT-4 leukemia = system: MOLT-4 leukemia
NCI-H226 lung = system: NCI-H226 lung
NCI-H23 lung = system: NCI-H23 lung
NCI-H460 lung = system: NCI-H460 lung
NCI-H522 lung = system: NCI-H522 lung
NCI/ADR-RES ovarian = system: NCI/ADR-RES ovarian
OVCAR-3 ovarian = system: OVCAR-3 ovarian
OVCAR-4 ovarian = system: OVCAR-4 ovarian
OVCAR-5 ovarian = system: OVCAR-5 ovarian
OVCAR-8 ovarian = system: OVCAR-8 ovarian
PC-3 prostate = system: PC-3 prostate
RPMI-8226 leukemia = system: RPMI-8226 leukemia
RXF 393 renal = system: RXF 393 renal
SF-268 CNS = system: SF-268 CNS
SF-295 CNS = system: SF-295 CNS
SF-539 CNS = system: SF-539 CNS
SK-MEL-2 melanoma = system: SK-MEL-2 melanoma
SK-MEL-28 melanoma = system: SK-MEL-28 melanoma
SK-MEL-5 melanoma = system: SK-MEL-5 melanoma
SK-OV-3 ovarian = system: SK-OV-3 ovarian
SN12C renal = system: SN12C renal
SNB-19 CNS = system: SNB-19 CNS
SNB-75 CNS = system: SNB-75 CNS
SR leukemia = system: SR leukemia
SW-620 colon = system: SW-620 colon
T-47D breast = system: T-47D breast
TK-10 renal = system: TK-10 renal
U251 CNS = system: U251 CNS
UACC-257 melanoma = system: UACC-257 melanoma
UACC-62 melanoma = system: UACC-62 melanoma
UO-31 renal = system: UO-31 renal

SMILES: C=C(C)[C@@H]1CC[C@]2(C)[C@H](CC[C@@H]3[C@@H]([C@@](C)(O)CCC=C(C)C)CC[C@]32C)[C@@]1(C)CCC(=O)N1CCN(C)CC1
- GI50 (786-0 renal): 10.3 µM
- TGI (786-0 renal): 23.8 µM
- GI50 (A498 renal): 13.2 µM
- TGI (A498 renal): 26.6 µM
- GI50 (A549 NSCLC): 9.65 µM
- TGI (A549 NSCLC): 24.2 µM
- GI50 (ACHN renal): 13.6 µM
- TGI (ACHN renal): 26.5 µM
- GI50 (BT-549 breast): 11.2 µM
- TGI (BT-549 breast): 24.1 µM
- GI50 (CAKI-1 renal): 12.4 µM
- TGI (CAKI-1 renal): 24.9 µM
- GI50 (CCRF-CEM leukemia): 11.6 µM
- TGI (CCRF-CEM leukemia): 37.6 µM
- GI50 (COLO 205 colon): 12.3 µM
- TGI (COLO 205 colon): 26.8 µM
- GI50 (DU-145 prostate): 11.9 µM
- TGI (DU-145 prostate): 24.6 µM
- GI50 (EKVX NSCLC): 11.6 µM
- TGI (EKVX NSCLC): 23.9 µM
- GI50 (HCC-2998 colon): 13.5 µM
- TGI (HCC-2998 colon): 26.3 µM
- GI50 (HCT-116 colon): 4.43 µM
- TGI (HCT-116 colon): 16.9 µM
- GI50 (HCT-15 colon): 6.04 µM
- TGI (HCT-15 colon): 18.1 µM
- GI50 (HL-60(TB) leukemia): 4.26 µM
- TGI (HL-60(TB) leukemia): 19.2 µM
- GI50 (HOP-62 NSCLC): 12.8 µM
- TGI (HOP-62 NSCLC): 26.1 µM
- GI50 (HOP-92 NSCLC): 6.4 µM
- TGI (HOP-92 NSCLC): 20.7 µM
- GI50 (HS 578T breast): 13.1 µM
- TGI (HS 578T breast): 36.5 µM
- GI50 (HT29 colon): 4.14 µM
- TGI (HT29 colon): 16.2 µM
- GI50 (IGROV1 ovarian): 12.7 µM
- TGI (IGROV1 ovarian): 27.4 µM
- GI50 (K-562 leukemia): 4.26 µM
- TGI (K-562 leukemia): 24.1 µM
- GI50 (KM12 colon): 10.5 µM
- TGI (KM12 colon): 23.6 µM
- GI50 (LOX IMVI melanoma): 13.4 µM
- TGI (LOX IMVI melanoma): 26.5 µM
- GI50 (M14 melanoma): 10.1 µM
- TGI (M14 melanoma): 24.2 µM
- GI50 (MALME-3M melanoma): 10.7 µM
- TGI (MALME-3M melanoma): 23.6 µM
- GI50 (MCF7 breast): 7 µM
- TGI (MCF7 breast): 21.1 µM
- GI50 (MDA-MB-231 breast): 13.4 µM
- TGI (MDA-MB-231 breast): 26.7 µM
- GI50 (MDA-MB-435): 12.2 µM
- TGI (MDA-MB-435): 26.5 µM
- GI50 (MOLT-4 leukemia): 6.39 µM
- TGI (MOLT-4 leukemia): 29.3 µM
- GI50 (NCI-H226 lung): 12.9 µM
- TGI (NCI-H226 lung): 31.7 µM
- GI50 (NCI-H23 lung): 13.7 µM
- TGI (NCI-H23 lung): 27.5 µM
- GI50 (NCI-H460 lung): 16.9 µM
- TGI (NCI-H460 lung): 32.9 µM
- GI50 (NCI-H522 lung): 13.4 µM
- TGI (NCI-H522 lung): 28.2 µM
- GI50 (NCI/ADR-RES ovarian): 12.1 µM
- TGI (NCI/ADR-RES ovarian): 25 µM
- GI50 (OVCAR-3 ovarian): 10.4 µM
- TGI (OVCAR-3 ovarian): 22.5 µM
- GI50 (OVCAR-4 ovarian): 10.1 µM
- TGI (OVCAR-4 ovarian): 23.4 µM
- GI50 (OVCAR-5 ovarian): 14 µM
- TGI (OVCAR-5 ovarian): 27.4 µM
- GI50 (OVCAR-8 ovarian): 14.1 µM
- TGI (OVCAR-8 ovarian): 30.5 µM
- GI50 (PC-3 prostate): 3.77 µM
- TGI (PC-3 prostate): 15.8 µM
- GI50 (RPMI-8226 leukemia): 5.99 µM
- TGI (RPMI-8226 leukemia): 28.6 µM
- GI50 (RXF 393 renal): 5.25 µM
- TGI (RXF 393 renal): 16.4 µM
- GI50 (SF-268 CNS): 13.1 µM
- TGI (SF-268 CNS): 30.1 µM
- GI50 (SF-295 CNS): 13.4 µM
- TGI (SF-295 CNS): 26.2 µM
- GI50 (SF-539 CNS): 9.44 µM
- TGI (SF-539 CNS): 21.7 µM
- GI50 (SK-MEL-2 melanoma): 14.8 µM
- TGI (SK-MEL-2 melanoma): 29.8 µM
- GI50 (SK-MEL-28 melanoma): 12.9 µM
- TGI (SK-MEL-28 melanoma): 25.8 µM
- GI50 (SK-MEL-5 melanoma): 6.97 µM
- TGI (SK-MEL-5 melanoma): 19.6 µM
- GI50 (SK-OV-3 ovarian): 12.9 µM
- TGI (SK-OV-3 ovarian): 26.4 µM
- GI50 (SN12C renal): 11.4 µM
- TGI (SN12C renal): 24.2 µM
- GI50 (SNB-19 CNS): 15 µM
- TGI (SNB-19 CNS): 28.4 µM
- GI50 (SNB-75 CNS): 11.3 µM
- TGI (SNB-75 CNS): 25 µM
- GI50 (SR leukemia): 3.39 µM
- TGI (SR leukemia): 21.6 µM
- GI50 (SW-620 colon): 13 µM
- TGI (SW-620 colon): 28.5 µM
- GI50 (T-47D breast): 4.72 µM
- TGI (T-47D breast): 19.6 µM
- GI50 (TK-10 renal): 17.7 µM
- TGI (TK-10 renal): 32.2 µM
- GI50 (U251 CNS): 10.1 µM
- TGI (U251 CNS): 22 µM
- GI50 (UACC-257 melanoma): 11.8 µM
- TGI (UACC-257 melanoma): 25.6 µM
- GI50 (UACC-62 melanoma): 11.2 µM
- TGI (UACC-62 melanoma): 24.1 µM
- GI50 (UO-31 renal): 11.3 µM
- TGI (UO-31 renal): 23.3 µM
